Measured values taken from article PMC3461044, “Probing Protein Sequences as Sources for Encrypted Antimicrobial Peptides” (PLoS ONE, 2012).

Tests used:
[1] = tested on: Xanthomonas axonopodis pv. glycines; conditions: for 1/(log(MICs (mM)), Xanthomonas axonopodis pv. glycines): from MIC, 0 where no detectable activity; for MIC, Xanthomonas axonopodis pv. glycines: serial 2-fold dilutions, 96-well, inoculum ~10^5 CFU/mL, highest 256 µg/mL, 48 h, OD600, NDA = Non-detectable activity
Method: MICs were determined using the M7-A6 protocol from the Clinical Laboratory Standards Institute (CLSI). […] Initial bacterium inoculum of ∼10^5 colony forming units/mL were transferred, along with serial 2-fold dilutions of each peptide to 96-well plates and incubated for 12 h. […] For each peptide concentration, optical density (OD600) readings were subtracted from that of the growth medium and divided by the positive control (100% bacterial growth). Inhibitory assays for X. axonopodis pv. glycines were conducted by the same methodology with longer incubation time (48 h).

[2] = tested on: Pseudomonas aeruginosa ATCC 27853; format: cell-based; conditions: for MIC, Pseudomonas aeruginosa: Mueller-Hinton broth, serial 2-fold dilutions, inoculum ~10^5 CFU/mL, highest 256 µg/mL, 12 h, OD600, NDA = Non-detectable activity; for 1/(log(MICs (mM)), Pseudomonas aeruginosa): from MIC, 0 where no detectable activity
Method: (§1) MICs were determined using the M7-A6 protocol from the Clinical Laboratory Standards Institute (CLSI). Escherichia coli ATCC 25922, Pseudomonas aeruginosa ATCC 27853, Staphylococcus aureus ATCC 29313 were streaked in Mueller-Hinton agar, grown overnight at 37°C, transferred to Mueller-Hinton broth and incubated until readings at 600 nm reached the equivalent of 0.5 in the MacFarland scale. […]. Inhibitory assays for X. axonopodis pv. glycines were conducted by the same methodology with longer incubation time (48 h).

[3] = tested on: Staphylococcus aureus ATCC 29313; format: cell-based; conditions: for MIC, Staphylococcus aureus: Mueller-Hinton broth, serial 2-fold dilutions, inoculum ~10^5 CFU/mL, highest 256 µg/mL, 12 h, OD600, NDA = Non-detectable activity; for 1/(log(MICs (mM)), Staphylococcus aureus): from MIC, 0 where no detectable activity
Method: as §1

[4] = tested on: Escherichia coli ATCC 25922; format: cell-based; conditions: for MIC, Escherichia coli: Mueller-Hinton broth, serial 2-fold dilutions, inoculum ~10^5 CFU/mL, highest 256 µg/mL, 12 h, OD600, NDA = Non-detectable activity; for 1/(log(MICs (mM)), Escherichia coli): from MIC, 0 where no detectable activity
Method: as §1

[5] = Far UV circular dichroism of peptides in buffer (MRE, α-helix percentage); format: physicochemical; conditions: for [q]208 nm Buffer (Greenfield 69): Mean Residue Ellipticity at 208 nm; for [q]208 nm Buffer (Greenfield 69) / [q]222 nm Buffer (Chen 74): peptide in buffer, far UV CD; for [q]222 nm Buffer (Chen 74): Mean Residue Ellipticity at 222 nm; for % Helicity (Buffer) (Greenfield 69): from [q]208 nm, methodology of Greenfield et al. 1969; for % Helicity (Buffer) (Chen 74): from [q]222 nm, methodology of Chen et al. 1974
Method: Far UV CD spectra were acquired for peptides at 20 µM in buffer and in the presence of DMPC or 2∶1 DMPC:DMPG LUVs at 1 mol% peptide/phospholipids. Peptides presented different degrees of secondary structures upon LUVs addition. […] Following the addition of LUVs, some peptides changed conformation resulting in spectral features characteristic of α-helical structures.
Experiments were conducted on a Jasco-J810 spectropolarimeter (Jasco International Co., Japan). Spectra were acquired at room temperature from 194 to 260 nm as an average of 4 readings using a 0.1 cm path length cell, data pitch of 0.2 nm and a response time of 0.5 s. Data Scans of buffer and 2 mM DMPC and 2∶1 DMPC:DMPG LUVs solutions were acquired and subtracted from each peptide data. Peptides were scanned at a concentration of 20 µM in buffer and then 100 fold excess of DMPC and 2∶1 DMPC:DMPG LUVs were added, resulting in a molar ratio of 0.01 peptide/phospholipids. […] Proximity to equilibrium was verified by scanning peptides added with twice the LUVs concentration, approximately 4 mM.

Phakopsora pachyrhizi = assay: Asian rust tolerance assay of transformed soybean plants; format: in vivo, Phakopsora pachyrhizi on Glycine max; conditions: sprayed with 10^6 spores/mL, 15 days, control plants 45±8
Method: The gene encoding the peptide gb|ABM17058.1|(213–231), primary structure […], was synthesized by Epoch Life Science Inc. (Sugar Land, TX, USA) and cloned into the vector pBluKSPOXDCAHAS replacing the oxdc gene. The vector was used to transform soybean plants as previously described, [31]. Six intragenic soybean lines were tested for tolerance to Asian rust (Phakopsora pachyrhizi). The plants (20 plants per line at V3 stage) were sprayed with a spore suspension (10^6 spores/mL) and maintained in the greenhouse at room temperature and sprinkling 4 times a day. Leaves were photographed after 15 days and the number of pustules per square centimeter counted.

[6] = tested on: Phakopsora pachyrhizi spores; assay: In situ germination inhibition of Phakopsora pachyrhizi spores on Glycine max leaves' surface; format: cell-based; conditions: 8 µg/mL (3 µM) peptide co-incubated with 3.5×10^5/ml spores on G. max leaf disks, 7 days, 21°C; average of three experiments
Method: P. pachyrhizi spores were scraped off infected G. max leaves and were frozen at −80°C. Prior to the in situ assay, spores were dissolved in Mili-Q® water, incubated at 40°C for 40 min and quantified using a Neubauer chamber. […]. BR-16). Spores were then co-incubated with fifty microliters of a peptide solution at concentrations ranging from 8 to 128 µg/mL. Leaves were immediately placed on a Petri dish containing moist filter papers and incubated at 21°C under 12 h-photoperiod and photographed after 7 days. Images were used to measure the infected area using the QUANT v1.0.1 software.

Sequence	1/(log(MICs (mM)), Xanthomonas axonopodis pv. glycines) [1]	MIC, Xanthomonas axonopodis pv. glycines [1]	MIC, Pseudomonas aeruginosa [2]	1/(log(MICs (mM)), Pseudomonas aeruginosa) [2]	MIC, Staphylococcus aureus [3]	1/(log(MICs (mM)), Staphylococcus aureus) [3]	MIC, Escherichia coli [4]	1/(log(MICs (mM)), Escherichia coli) [4]	[q]208 nm Buffer (Greenfield 69) [5]	[q]222 nm Buffer (Chen 74) [5]	% Helicity (Buffer) (Greenfield 69) [5]	% Helicity (Buffer) (Chen 74) [5]	number of uredia per foliar area (Phakopsora pachyrhizi; transformed G. max lineage 72.14.5, V3 stage)	number of uredia per foliar area (Phakopsora pachyrhizi; transformed G. max lineage 72.14.9, V3 stage)	concentration that inhibited the in vitro growth of X. axonopodis pv. glycines ([1]; in vitro growth)	infected area [6]
FKALRALRLEDLRIPTSYIK [A3KLW0(117–136), putative IAP; fragment of Rubisco large chain, Anisophyllea pomifera]	0	NDA	NDA	0	NDA	0	NDA	0	-11457	-3442	25.7%	9.8%	–	–	–	–
FVTNSKRLAEGIEKGVGNSILIKVN [Q8KG25(327–351), putative IAP; fragment of Enolase 2, Chlorobium tepidum]	0	NDA	NDA	0	NDA	0	NDA	0	-7856	-6669	13.3%	18.9%	–	–	–	–
GHRGALKDWVQAAGGAVAAFDFTTKG [Q8RW88(70–95), putative IAP; fragment of Alpha-amylase, Citrus reticulata]	0	NDA	NDA	0	NDA	0	NDA	0	-4005	-6062	0.0168%	17.2%	–	–	–	–
GLWQIFSSKEEGKDNSQQKSKGDQAKEL [gb|ACU24018.1|(73–101), putative IAP; fragment of Unknown protein, Glycine max]	0	NDA	NDA	0	NDA	0	NDA	0	-7591	-2129	12.4%	6%	–	–	–	–
GLWSTIKQKGKE [DS 01 (1–12), fragment 1–12 of DS 01, Phyllomedusa oreades, reference compound]	0	NDA	NDA	0	NDA	0	NDA	0	-9158	-2137	17.8%	6.1%	–	–	–	–
IAAAQRITSGAADIAINWAGGLHHAKK [B0CZJ3(104–130), putative IAP; fragment of Histone deacetylase complex, Laccaria bicolor]	0	NDA	NDA	0	NDA	0	NDA	0	-17825	-7158	47.7%	20.3%	–	–	–	–
KAGLQFPVGRIARFLK [B4FGE3(22–37), putative IAP; fragment of Histone H2A, Zea mays]	0	NDA	NDA	0	NDA	0	NDA	0	-5213	-1506	4.2%	4.3%	–	–	–	–
KLKKLLAGQKDGLLGQIAAMSDLYTKK [P94692(929–955), putative IAP; fragment of Pyruvate-ferredoxin oxidoreductase, Desulfovibrio africanus]	0	NDA	NDA	0	NDA	0	NDA	0	-6507	-2066	8.6%	5.9%	–	–	–	–
MIKAFKEATKVDKVVVLWTA [gb|ABM17058.1|(213–231), IAP, fragment of G. max D-myo-inositol 3-phosphate synthase; expressed in transformed soybean lineages 72.14.5 and 72.14.9]	–	–	–	–	–	–	–	–	–	–	–	–	7±3 pustules/cm^2	12±3 pustules/cm^2	–	–
RWRFLRKISSVHMFSVKALDDFRQL [Gm0025x00667(75–100), novel IAP, fragment of the G. max enzyme flavonoid 3-hydroxylase]	–	–	–	–	–	–	–	–	–	–	–	–	–	–	5 µM	approximately 50 % of the control
SLWKNLSRKISGAVKAQPDLHTLLPLPGS [Q9XEY7(120–148), putative IAP; fragment of Trehalase 1 GMTRE1, Glycine max]	0	NDA	NDA	0	NDA	0	NDA	0	-11377	-2931	25.4%	8.3%	–	–	–	–
